Earlier results as cited in patent US12173009B2, “Diamine derivatives as inhibitors of leukotriene A4 hydrolase” (CELLTAXIS, LLC, priority 2005, dated 2024).
pKd: −log10 of the molar value.

Experiments:
BLT1 = settings: Human BLT1 and its mouse, rat and guinea pig orthologues
[1] = test system: lower affinity LTB4 receptors on neutrophils; settings: additional lower affinity receptors on neutrophils
Human BLT2 = target: T1, Human BLT2 (Homo sapiens, UniProt Q9NPC1); settings: Human BLT2 versus BLT1
T1 sequence (Q9NPC1 1-358): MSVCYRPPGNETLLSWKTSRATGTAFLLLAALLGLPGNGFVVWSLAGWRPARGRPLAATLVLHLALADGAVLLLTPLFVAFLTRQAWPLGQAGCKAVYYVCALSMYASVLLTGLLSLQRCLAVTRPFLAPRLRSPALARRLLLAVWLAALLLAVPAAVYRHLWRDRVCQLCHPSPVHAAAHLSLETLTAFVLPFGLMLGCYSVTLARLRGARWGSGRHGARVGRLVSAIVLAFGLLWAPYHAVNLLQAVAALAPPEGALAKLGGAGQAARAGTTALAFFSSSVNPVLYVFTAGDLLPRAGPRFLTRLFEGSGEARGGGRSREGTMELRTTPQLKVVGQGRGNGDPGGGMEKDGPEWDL

LTA4-h [2] = target: T2, LTA4-h (Rattus norvegicus, UniProt P30349); settings: oral administration; rat peritoneum in vivo
T2 construct: host or cells: rat peritoneum (endogenous enzyme)
T2 sequence (P30349 1-611): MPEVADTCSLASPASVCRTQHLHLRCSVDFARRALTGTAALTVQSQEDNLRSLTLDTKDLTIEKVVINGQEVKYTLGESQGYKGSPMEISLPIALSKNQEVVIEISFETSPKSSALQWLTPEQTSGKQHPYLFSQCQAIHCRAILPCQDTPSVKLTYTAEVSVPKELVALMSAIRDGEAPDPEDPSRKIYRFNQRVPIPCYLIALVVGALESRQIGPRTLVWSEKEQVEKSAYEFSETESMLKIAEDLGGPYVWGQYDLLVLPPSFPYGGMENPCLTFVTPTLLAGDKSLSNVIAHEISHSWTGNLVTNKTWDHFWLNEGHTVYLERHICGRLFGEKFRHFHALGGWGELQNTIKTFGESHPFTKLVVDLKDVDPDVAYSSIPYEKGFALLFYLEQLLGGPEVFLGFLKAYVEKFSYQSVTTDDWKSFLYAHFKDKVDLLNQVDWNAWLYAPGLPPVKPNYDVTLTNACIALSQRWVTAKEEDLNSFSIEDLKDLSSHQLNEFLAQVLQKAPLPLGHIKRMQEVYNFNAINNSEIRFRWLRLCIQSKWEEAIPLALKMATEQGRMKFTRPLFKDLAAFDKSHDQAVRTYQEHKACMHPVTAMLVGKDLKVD

spontaneous colitis = settings: eight weeks of treatment; cotton top tamarins
LTA4-h [3] = target: T3, LTA4-h (Mus musculus, UniProt P24527); settings: oral administration; mouse blood ex vivo
T3 construct: host or cells: mouse blood (endogenous enzyme)
T3 sequence (P24527 1-611): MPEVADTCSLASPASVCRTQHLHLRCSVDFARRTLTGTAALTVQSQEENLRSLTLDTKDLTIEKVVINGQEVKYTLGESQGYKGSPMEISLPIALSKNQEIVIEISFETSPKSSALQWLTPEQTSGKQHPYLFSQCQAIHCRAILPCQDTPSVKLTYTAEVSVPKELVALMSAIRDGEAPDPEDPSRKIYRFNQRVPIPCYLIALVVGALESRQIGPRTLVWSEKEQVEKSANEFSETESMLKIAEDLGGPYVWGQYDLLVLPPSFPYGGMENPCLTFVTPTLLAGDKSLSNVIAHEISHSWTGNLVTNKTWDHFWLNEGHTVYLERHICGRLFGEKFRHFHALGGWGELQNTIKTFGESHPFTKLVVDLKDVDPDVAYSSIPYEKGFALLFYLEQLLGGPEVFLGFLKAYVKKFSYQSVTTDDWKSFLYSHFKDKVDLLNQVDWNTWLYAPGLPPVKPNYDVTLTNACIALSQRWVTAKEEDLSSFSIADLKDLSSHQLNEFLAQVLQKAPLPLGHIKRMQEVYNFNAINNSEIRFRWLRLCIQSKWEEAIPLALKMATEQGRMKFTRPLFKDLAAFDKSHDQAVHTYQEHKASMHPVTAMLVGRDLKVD

| ionophore-induced LTB4 production (LTA4-h [2]) | ionophore-induced LTB4 production (LTA4-h [3]) | SMILES | pKd (BLT1) | pKd [1] | lower affinity of BLT2 for LTB4 than BLT1 (Human BLT2) [fold] | colitis symptoms (spontaneous colitis) |
| --- | --- | --- | --- | --- | --- | --- |
|  |  | CCCCC/C=C\C[C@@H](O)/C=C/C=C/C=C\[C@@H](O)CCCC(=O)O [LTB4, Leukotriene B4] | 9.15 to 10.00 | < 7.22 | 20 |  |
| caused inhibition | caused inhibition | CN(CCCOc1ccc(Cc2ccccc2)cc1)CCC(=O)O.Cl [SC57461] |  |  |  | significantly improved colitis symptoms |
